According to article PMC4337988 (Science (New York, N.Y.), 2014):

How the values were obtained:
BcPyrR = BcPyrR ([Bacillus] caldolyticus, UniProt P41007); assay: SEC-MALS; type: binding; conditions: 50 mM Tris pH 7.5, 150 mM NaCl, 1 mM DTT, room temperature; allosteric
BsPyrR = BsPyrR (Bacillus subtilis, UniProt P39765); assay: SEC-MALS; type: binding; conditions: 50 mM Tris pH 7.5, 150 mM NaCl, 1 mM DTT, room temperature; allosteric
Sequence of BsPyrR (P39765 whole entry): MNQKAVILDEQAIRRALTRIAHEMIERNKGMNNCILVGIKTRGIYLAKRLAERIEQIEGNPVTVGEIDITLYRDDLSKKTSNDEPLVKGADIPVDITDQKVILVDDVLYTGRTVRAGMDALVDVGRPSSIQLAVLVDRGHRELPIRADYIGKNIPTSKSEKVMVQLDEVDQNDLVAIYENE

Sequence of BcPyrR (P41007 whole entry): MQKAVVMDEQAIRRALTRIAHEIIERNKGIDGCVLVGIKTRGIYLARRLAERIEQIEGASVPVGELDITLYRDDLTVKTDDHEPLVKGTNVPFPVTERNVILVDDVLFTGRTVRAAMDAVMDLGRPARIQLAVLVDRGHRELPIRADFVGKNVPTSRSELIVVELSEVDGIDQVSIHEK

| Compound | SEC-MALS (oligomeric state shift) (BcPyrR) | SEC-MALS (oligomeric state shift) (BsPyrR) |
| --- | --- | --- |
| Nc1nc2c(ncn2[C@@H]2O[C@H](COP(=O)(O)O)[C@@H](O)[C@H]2O)c(=O)[nH]1 [GMP] | We analysed the oligomeric state of BsPyrR and BcPyrR by SEC-MALS upon addition of allosteric ligands |  |
| O=c1ccn([C@@H]2O[C@H](COP(=O)(O)O)[C@@H](O)[C@H]2O)c(=O)[nH]1 [UMP] | both UMP and GMP stabilize the tetrameric state of PyrR | both UMP and GMP stabilize the tetrameric state of PyrR |
